Measurements published in the NIST ThermoML archive (doi:10.1016/j.jct.2012.07.007).

Experiments:
[1] = excess molar enthalpy (molar enthalpy of mixing); xn = mol fraction of the nth substance listed; settings: 298.15 K, 101 kPa, Liquid, 2-drop calorimetry
[2] = xn = mol fraction of the nth substance listed; settings: 101 kPa, Liquid; for speed of sound: Linear variable-path acoustic interferometer; for mass density: Vibrating tube method

Cc1cccnc1 [3-methylpyridine] + CCn1cc[n+](C)c1.F[B-](F)(F)F
[1]
Settings | excess molar enthalpy [kJ/mol]
x2 = 0.1256 | -0.136
x2 = 0.1676 | -0.171
x2 = 0.2089 | -0.205
x2 = 0.2578 | -0.245
x2 = 0.2976 | -0.272
x2 = 0.3387 | -0.294
x2 = 0.3898 | -0.32
x2 = 0.4367 | -0.341
x2 = 0.4876 | -0.361
x2 = 0.5223 | -0.369
x2 = 0.599 | -0.376
x2 = 0.6345 | -0.372
x2 = 0.689 | -0.36
x2 = 0.7356 | -0.339
x2 = 0.7909 | -0.298
x2 = 0.8479 | -0.244
x2 = 0.889 | -0.197
x2 = 0.9109 | -0.165

[2]
Settings | mass density, 293.15 K [kg/m3] | mass density, 298.15 K [kg/m3] | mass density, 303.15 K [kg/m3] | mass density, 308.15 K [kg/m3] | speed of sound, 293.15 K [m/s] | speed of sound, 298.15 K [m/s] | speed of sound, 303.15 K [m/s] | speed of sound, 308.15 K [m/s]
x2 = 0.1217 | 1024.56 | 1020.46 | 1016.63 | 1011.73 | 1479.9 | 1465 | 1443.4 | 1427
x2 = 0.1729 | 1050.57 | 1046.54 | 1042.83 | 1038.13 | 1494.7 | 1480.8 | 1459.7 | 1443.9
x2 = 0.2415 | 1082.96 | 1079.02 | 1075.3 | 1070.72 | 1514 | 1499.7 | 1481.3 | 1465.7
x2 = 0.2711 | 1096.07 | 1092.1 | 1088.37 | 1084.01 | 1521.8 | 1507.9 | 1490.3 | 1474.6
x2 = 0.3214 | 1117.16 | 1113.25 | 1109.49 | 1105.3 | 1535.6 | 1520.5 | 1504.5 | 1488.8
x2 = 0.3732 | 1137.38 | 1133.44 | 1129.62 | 1125.73 | 1548.8 | 1532.8 | 1519.4 | 1503.3
x2 = 0.4219 | 1154.95 | 1151.03 | 1147.27 | 1143.6 | 1560.1 | 1543.2 | 1532.2 | 1517
x2 = 0.4718 | 1171.59 | 1167.7 | 1163.94 | 1160.52 | 1571.8 | 1554.4 | 1544.1 | 1530
x2 = 0.5209 | 1186.68 | 1182.83 | 1179.2 | 1175.87 | 1581.6 | 1564 | 1556 | 1541.8
x2 = 0.5723 | 1201.17 | 1197.38 | 1193.82 | 1190.64 | 1591.9 | 1574.7 | 1566.4 | 1554.1
x2 = 0.6221 | 1214.02 | 1210.25 | 1206.88 | 1203.74 | 1600.3 | 1583.7 | 1576.1 | 1565.4
x2 = 0.6731 | 1226.02 | 1222.36 | 1219.18 | 1215.94 | 1607.5 | 1593 | 1585.5 | 1576.2
x2 = 0.7212 | 1236.43 | 1232.83 | 1229.78 | 1226.48 | 1614.1 | 1601.4 | 1592.8 | 1585.3
x2 = 0.7708 | 1246.34 | 1242.76 | 1239.81 | 1236.4 | 1619.1 | 1608.8 | 1598.7 | 1593.7
x2 = 0.8224 | 1255.77 | 1252.24 | 1249.34 | 1245.81 | 1623.7 | 1614.9 | 1604.2 | 1599.5
x2 = 0.8713 | 1264.1 | 1260.53 | 1257.58 | 1253.89 | 1627.2 | 1619.3 | 1607.5 | 1603
x2 = 0.9119 | 1270.62 | 1266.99 | 1263.93 | 1260.07 | 1629 | 1621.6 | 1609 | 1603.9
x2 = 0.9317 | 1273.7 | 1270 | 1266.86 | 1262.91 | 1629.8 | 1621.8 | 1609.2 | 1603.2
